How the values were obtained:
Type in all cases: physicochemical
[1] = Content uniformity by dose through use testing; conditions: for BuO dose: actuations 1+2, mean of 10 inhalers; for EuO dose: actuations 119+120, mean of 10 inhalers
Description: (§1) Salmeterol xinafoate formulations in HFA 134a (1,1,1,2-tetrafluoroethane), of strength 25 μg per actuation, and 10% w/w (relative to drug) of the surfactant compound of Example 1 (Bis(4,4,5,5,5-pentafluopentanoyl)phosphatidylcholine) were prepared using salmeterol xinafoate (5.8 mg), HFA 134a (12 g) and the relevant compound (0.58 mg). The control was prepared without the addition of a surfactant.
The content uniformity of the formulation, the preparation of which is described above, was assessed by dose through use testing. Testing was performed on 10 cans/inhalers at “beginning of use” (BoU) and “end of use” (EoU). After each inhaler had been primed (4 shots fired to waste), actuations 1 and 2 (BoU) were collected. The next 116 actuations of each inhaler were then fired to waste using an automated method and actuations 119 and 120 (EoU) collected.
Assesment of content uniformity was performed intially (following sample preparation) and then on a further 10 inhalers for each timepoint, 8 weeks and 3 months, which were stored at 40° C./75% RH. Mean results from the two BoU actuations (1+2 for 10 inhalers) and the two EoU actuations (119+120 for same 10 inhalers) at each timepoint together with the percentage relative standard deviation (% RSD) for the 10 cans are shown in Table 3.

[2] = Andersen Cascade Impaction of salmeterol xinafoate HFA 134a formulation; conditions: for % FPM (FPM as percentage of total dose emitted ex-valve) / FPM (fine particle mass, sum of stages 3-5) / Total Dose Emitted (Ex-Actuator) / Total Dose Emitted (Ex-Valve): BoU, mean of 3 cans/inhalers
Description: as §1
The formulation, the preparation of which is described above, was profiled using an Andersen Cascade Impactor. Ten actuations at “beginning of use” (BoU) were collected in the impactor from an inhaler after 4 priming actuations were fired to waste. The drug delivered was then quantified by HPLC analysis. Testing was performed intially (following sample preparation) and then after inhalers had been stored at 40° C./75% RH for 8 weeks and for 3 months. The results, at each timepoint, in Table 2 are shown as the mean analysis of 3 cans/inhalers.
The profile obtained was used to determine total dose emitted dose (ex-valve and ex-actuator) and the fine particle mass (FPM, defined as the sum of stages 3-5). The percentage fine particle mass expresses the FPM as a percentage of the total dose emitted (ex-valve). The FPM is used as a measure of the proportion of the drug likely to reach the therapeutic target in the lungs.

[3] = Particle size of salmeterol xinafoate HFA 134a suspension by image analysis (Galai CIS-100)
Description: as §1
In this measurement, particle size is represented as the equivalent diameter of a circle of equal area to the object. The mean is the average of 4 determinations. The particle size measurement was obtained by transferring the suspensions to a presurised cell, and video-imaging the sample under shear via a microscope objective.
The equivalent diameter is defined as the diameter of a circle of equal area to the object. [formula]
The mean equivalent diameter can be weighted by number, length or volume. e.g. For three particles with equivalent diameters of x, y and z: [formula]

[4] = in the presence of the surfactant

C[N+](C)(C)CCOP(=O)([O-])OC[C@@H](COC(=O)CCC(F)(F)C(F)(F)F)OC(=O)CCC(F)(F)C(F)(F)F [Example 1, Bis(4,4,5,5,5-pentafluopentanoyl)phosphatidylcholine]
BuO dose ([1]; 3 Month at 40° C./75% RH): 19.7 µg | EuO dose ([1]; 3 Month at 40° C./75% RH): 22.6 µg | BuO dose ([1]; 8 Week at 40° C./75% RH): 20.3 µg | EuO dose ([1]; 8 Week at 40° C./75% RH): 24.2 µg | change in percentage RSD at EoU versus control (can to can reproducibility) ([1]; 10 inhalers tested): reduction | BuO dose ([1]; Initial): 19.6 µg | EuO dose ([1]; Initial): 23.3 µg | % FPM (FPM as percentage of total dose emitted ex-valve) ([2]; 3 month at 40° C./75% RH): 42.5% | FPM (fine particle mass, sum of stages 3-5) ([2]; 3 month at 40° C./75% RH): 10.4 µg | Total Dose Emitted (Ex-Actuator) ([2]; 3 month at 40° C./75% RH): 20.1 µg | Total Dose Emitted (Ex-Valve) ([2]; 3 month at 40° C./75% RH): 24.4 µg | % FPM (FPM as percentage of total dose emitted ex-valve) ([2]; 8 week at 40° C./75% RH): 44.2% | FPM (fine particle mass, sum of stages 3-5) ([2]; 8 week at 40° C./75% RH): 10.4 µg | Total Dose Emitted (Ex-Actuator) ([2]; 8 week at 40° C./75% RH): 19.5 µg | Total Dose Emitted (Ex-Valve) ([2]; 8 week at 40° C./75% RH): 23.5 µg | % FPM (FPM as percentage of total dose emitted ex-valve) ([2]; Initial): 47.7% | FPM (fine particle mass, sum of stages 3-5) ([2]; Initial): 11.1 µg | Total Dose Emitted (Ex-Actuator) ([2]; Initial): 20.0 µg | Total Dose Emitted (Ex-Valve) ([2]; Initial, 10% w/w surfactant): 23.3 µg | change in absolute FPM versus control [2, 4]: increase | change in absolute doses emitted versus control [2, 4]: increase | change in percentage FPM versus control [2, 4]: significant increase | change in average particle size (mean length weighted diameter) versus control ([3]; compound incorporated into the formulation): marked reduction | Mean Length weighted diameter ([3]; salmeterol xinafoate 25 μg per actuation in HFA 134a, 10% w/w surfactant relative to drug, average of 4 determinations): 13.3 μm | suspension stabilising properties (discouraging flocculation of drug particles) ([3]; salmeterol xinafoate in HFA 134a, 10% w/w surfactant): suspension stabilising properties

— patent publication US20040219106A1, “Compounds for use as surfactants” (priority 2001, published 2004)
